Here are results for 2 molecules from BindingDB's records for doi:10.1021/jm00019a005 (Warner-Lambert, 1995).

The experiment addresses Type-2 angiotensin II receptor (Oryctolagus cuniculus). In words: The compound was tested for binding affinity against Angiotensin II receptor, type 2 from rabbit uterus membrane by using [125I]AngII as radioligand.

The IC50 is the point on the concentration scale where inhibition reaches its midpoint.

In the case of `CCCCc1ncc(C=C2C(=O)NC(=O)N2CCCC)n1Cc1ccc(-c2ccccc2-c2nnn[nH]2)cc1` [1-Butyl-5-[1-{2-butyl-3-[2'-(1H-tetrazol-5-yl)-biphenyl-4-ylmethyl]-3H-imidazol-4-yl}-meth-(Z)-ylidene]-imidazolidine-2,4-dione], the 50% inhibitory concentration (IC50) stood at 0.789 µM.
`CCCCc1ncc(/C=C2/C(=O)N(CCCC)C(=O)N2CCCC)n1Cc1ccc(C(=O)OC)cc1` [4-{2-Butyl-5-[1,3-dibutyl-2,5-dioxo-imidazolidin-(4Z)-ylidenemethyl]-imidazol-1-ylmethyl}-benzoic acid methyl ester] came in with an IC50 of 5.87 µM. Compared with the last molecule, the IC50 is about 7.4-fold higher.
